Laboratory results as given in patent US9687494B2, “Iminothiadiazine dioxide compounds as BACE inhibitors, compositions, and their use” (Merck Sharp & Dohme Corp., priority 2009, dated 2017).

Legend:
[1] = Solution stability, Example A (pH 7.4 phosphate buffer/MeOH, LC/MS); format: physicochemical
Procedure: The following comparative procedures were used.
A 1.05 mg/mL stock solution (5 mL) of Ex. 45 in MeOH was prepared. From the stock solution was taken out 1.25 mL and diluted to 25 mL with the addition of 23.75 mL of 10 mM phosphate buffer (pH 7.4)/MeOH (70/30 v/v). This new solution was split into three. One solution was incubated at 4° C., another incubated at 25° C. and the third incubated at 40° C. Each solution was analyzed by LC/MS after day 1, day 2 and day 6 and compared to a standard calibration curve for Ex. 45.
In the following study, the solution stability of the compound of Example 45 was measured and compared to that of Compound Z. The compound of Example 45 is an iminothiadiazine dioxide compound of the invention. Compound Z is the corresponding iminopyrimidinone compound. The structures of the compound of Example 45 and of Compound Z are shown below. Studies were performed in aqueous pH 7.4 buffer containing methanol at 4° C., 25° C. and 40° C.

[2] = Solution stability, Example B (50 mM pH 7.4 phosphate buffer, 25° C., LC/MS); format: physicochemical
Procedure: Stock solutions of the tested compounds were prepared by dissolving about 3 mg of each compound in 3 mL of acetonitrile. Standards for test compounds were prepared by diluting 1 mL of the stock solution with an additional 4 mL of acetonitrile. These standards were stored at 4° C. Samples were prepared by diluting 1 mL of the stock solution with 4 mL of 50 mM pH 7.4 phosphate buffer. These samples were stored at 25° C. in the absence of light. Standards and samples were analyzed by LC/MS initially and at day 1, day 4, and day 6.
Mobile phase A: 10 mM pH 5 ammonium acetate buffer:methanol (90:10)
Mobile phase B: 10 mM pH 5 ammonium acetate buffer:methanol (10:90)
Column: Zorbax SB-Phenyl 4.6×50 mm, 1.8 μm
Column temperature: 40° C.
Detectors: UV at 220 nm and 236 nm
MS, ES ionization, positive mode, for identification only at final time point.
The terms reported in the tables below have the following meanings:
Area % is the integration of peak from HPLC as reported by Waters Empower II software.
RRT is the relative retention time of new product compared to the standard of the test compound.
ND stands for no peak detected by the UV detector.
* stands for no ion detected by the mass spectrometer.
In the following study, the solution stability of the compound of Example 47 was measured and compared to that of Compound Y. The compound of Example 47 is an iminothiadiazine dioxide compound of the invention. Compound Y is the corresponding iminopyrimidinone compound. The structures of the compound of Example 47 and of Compound Y are shown below. Studies were performed in pH 7.4 buffer at 25° C.

[3] = Standard (acetonitrile, stored at 4° C.)

| Compound | Assay (Area %), class symbol ([1]; pH 7.4, 4° C., 2 days) | Assay (Area %), class symbol ([1]; pH 7.4, 4° C., 6 days) | Assay (Area %), class symbol ([1]; pH 7.4, 4° C., time not given) | Assay (Area %), class symbol ([1]; pH 7.4, 25° C., 2 days) | Assay (Area %), class symbol ([1]; pH 7.4, 25° C., 6 days) | Assay (Area %), class symbol ([1]; pH 7.4, 25° C., time not given) | Assay (Area %), class symbol ([1]; pH 7.4, 40° C., 2 days) | Assay (Area %), class symbol ([1]; pH 7.4, 40° C., 6 days) | Assay (Area %), class symbol ([1]; pH 7.4, 40° C., time not given) | Area %, Day 1; compound peak (RRT 1.00) ([2]; Sample at pH 7.4, 25° C.) [Area %] | Area %, Day 4; compound peak (RRT 1.00) ([2]; Sample at pH 7.4, 25° C.) [Area %] | Area %, Day 6; compound peak (RRT 1.00) ([2]; Sample at pH 7.4, 25° C.) [Area %] | Area %, Initial; compound peak (RRT 1.00) ([2]; Sample at pH 7.4, 25° C.) [Area %] | Area %, Day 1; compound peak (RRT 1.00) [2, 3] [Area %] | Area %, Day 4; compound peak (RRT 1.00) [2, 3] [Area %] | Area %, Day 6; compound peak (RRT 1.00) [2, 3] [Area %] | Area %, Initial; compound peak (RRT 1.00) [2, 3] [Area %] |
| --- | --- | --- | --- | --- | --- | --- | --- | --- | --- | --- | --- | --- | --- | --- | --- | --- | --- |
| CN1C(=N)N[C@](C)(c2cc(-c3cccc(C#N)c3)cs2)CC1=O [Compound Z] | — ((—) stands for >20% degradation) | — ((—) stands for >20% degradation) | — ((—) stands for >20% degradation) | — ((—) stands for >20% degradation) | — ((—) stands for >20% degradation) | — ((—) stands for >20% degradation) | — ((—) stands for >20% degradation) | — ((—) stands for >20% degradation) | — ((—) stands for >20% degradation) | – | – | – | – | – | – | – | – |
| CN1C(=N)N[C@](C)(c2cc(-c3cccc(C#N)c3)cs2)CS1(=O)=O [Example 45] | – | – | – | – | – | – | – | – | — ((—) stands for >20% degradation) | – | – | – | – | – | – | – | – |
| CC#Cc1cncc(-c2csc([C@]3(C)CS(=O)(=O)N(C)C(=N)N3)c2)c1 [Example 47] | – | – | – | – | – | – | – | – | – | 98.56 | 98.53 | 98.53 | 98.55 | 98.55 | 98.52 | 98.52 | 98.53 |
